Assay results from patent publication US5763476A, “Sublingual or buccal pharmaceutical composition” (priority 1994, dated 1998).

Experiments:
[1] = Cardiovascular side effects on sublingual or buccal administration; type: in vivo
serotonin = conditions: cited from earlier work
[2] = Absorption from aqueous compositions kept under the tongue or in the mouth; type: in vivo; conditions: aqueous compositions kept under the tongue or in the mouth of a patient
human volunteers = experiment: Phase I clinical studies, peroral administration; type: in vivo
histamine = conditions: cited from earlier work

In the case of CN1C[C@@H]2c3ccccc3Oc3ccc(Cl)cc3[C@H]2C1 (relative stereo) [trans-5-chloro-2-methyl-2,3,3a,12b-tetrahydro-1H-dibenz[2,3:6,7]oxepino[4,5-c]pyrrole], the Cardiovascular side effects [1] is listed as “substantially less cardiovascular side effects”, the Antiserotonin activity (serotonin) is listed as “antihistamine and antiserotonin activities” and the Absorption [2] is listed as “rapidly absorbed”. The Cardiotoxic effects (human volunteers) was “serious cardiotoxic effects, e.g. postural hypotension and/or impairment of baroreceptor functioning, occurred” and the Antihistamine activity (histamine) was “antihistamine and antiserotonin activities”.
